Experimental data published in patent US12630510B2, “EP2 antagonist” (ONO PHARMACEUTICAL CO., LTD., priority 2019, dated 2026).

Each compound was assayed on mouse colorectal cancer cell line CT26 (assay: Anti-tumor effect in allogenic transplantation model of mouse colorectal cancer cell line CT26). Conditions: female Balb/C mice, CT26 subcutaneous; 10 mg/kg per single dose, once on day-4, twice per day day-5 to day-25.
Type: in vivo
Protocol: The anti-tumor effect of the compound of the present invention was evaluated in an allogenic transplantation model of CT26 that was a mouse colorectal cancer cell line. CT26 was cultured in a RPMI-1640 medium supplemented with 10 vol % of heat-inactivated fetal bovine serum (FBS), 100 units/mL of penicillin and 100 μg/mL of streptomycin in a CO2 incubator. On the day of transplantation, a culture supernatant was removed, CT26 was washed with a phosphate buffered saline (also abbreviated as “PBS”, hereinafter) and was then collected. The collected CT26 was suspended in PBS and was used as cells for transplantation. 300,000 cells for the transplantation were transplanted subcutaneously into female Balb/C mice (Charles River Laboratories Japan) on the right back. Four days after the transplantation, the mice were divided into two groups, i.e., a medium group and a compound A group, each including 10 cases. […] With respect to a tumor volume (mm^3), a shorter diameter and a longer diameter of a tumor were measured with an electronic caliper, and the tumor volume was calculated in accordance with mathematical formula 1 shown below. […]

| Compound | tumor volumes on day-25 of the transplantation compared with medium-administered group |
| --- | --- |
| Cc1cc(OCCc2ccccc2)cc(C)c1C(=O)Nc1cc([C@H]2C[C@H]2C(=O)O)ccc1C(F)(F)F [Example 18, (1R,2S)-2-[3-{[2,6-Dimethyl-4-(2-phenylethoxy)benzoyl]amino}-4-(trifluoromethyl)phenyl]cyclopropanecarboxylic acid] | significantly smaller |

What follows are compounds tested against T1, human EP2 receptor (Homo sapiens, UniProt P43116) (assay: Experiment of measuring EP2 antagonistic activity using cells expressing prostanoid receptor (cAMP)). Conditions: CHO cells expressing human EP2 receptor; PGE2 10 nmol/L; cAMP quantified after 1 hour at room temperature; read-out: EP2_IC50.
T1 construct: expressed in transfected cells; host or cells: CHO cells
Type: cell-based
Protocol: CHO cells on each of which a human EP2 receptor had been expressed were prepared in accordance with the method by Nishigaki et al, (FEBS Letters, vol. 364, pp. 339-341, 1995) and were then cryopreserved in CELLBANKER2 (Nippon Zenyaku Kogyo Co., Ltd.) at a concentration of 1.5×10^7 cells/mL/vial. The CHO cells thus prepared were used in the experiment. The cells were thawed, and were then suspended in an assay medium (D-PBS containing 1 mmol/L IBMX, 2 μmol/L Diclofenac) at a concentration of 5×10^5 cells/mL. PGE2 alone having a final concentration of 10 nmol/L or a solution (10 μL) containing the PGE2 and a test compound was added to the cell suspension (10 μL) to initiate the reaction. After the reaction was performed at room temperature for 1 hour, the amount of cAMP in the cells was quantified in accordance with the method described in cAMP Gs Dynamic kit (CISBIO).
The antagonistic activity (IC50 value) of a test compound was calculated as a percentage of suppression of the reaction at 10 nM, which was a concentration at which a submaximal cAMP production activity was observed when PGE2 alone was employed. In this manner, an IC50 value was determined.

T1 sequence (P43116 whole entry): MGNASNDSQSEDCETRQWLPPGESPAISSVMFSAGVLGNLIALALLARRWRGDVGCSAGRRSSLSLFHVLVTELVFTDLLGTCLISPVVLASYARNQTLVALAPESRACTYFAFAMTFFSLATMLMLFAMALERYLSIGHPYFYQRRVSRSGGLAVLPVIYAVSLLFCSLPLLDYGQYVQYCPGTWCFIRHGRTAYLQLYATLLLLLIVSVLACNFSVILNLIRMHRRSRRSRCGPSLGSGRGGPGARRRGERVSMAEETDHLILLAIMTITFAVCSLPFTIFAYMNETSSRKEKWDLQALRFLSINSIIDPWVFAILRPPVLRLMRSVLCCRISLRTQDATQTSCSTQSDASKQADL

| IC50 [nM] | Compound |
| --- | --- |
| 0.4 | CC[C@H](C)n1c(CCOCc2ccccc2)ccc1C(=O)Nc1cc([C@H]2C[C@H]2C(=O)O)ccc1C(F)(F)F [Example 8, (1R,2S)-2-{3-[({5-[2-(Benzyloxy)ethyl]-1-[(2S)-2-butanyl]-1H-pyrrol-2-yl}carbonyl)amino]-4-(trifluoromethyl)phenyl}cyclopropanecarboxylic acid] |
| 0.3 | CC[C@H](C)n1c(CCOc2cc(F)nc(Cl)c2)ccc1C(=O)Nc1cc([C@H]2C[C@H]2C(=O)O)ccc1C(F)(F)F [Example 10, (1R,2S)-2-[3-{[(1-[(2S)-2-Butanyl]-5-{2-[(2-chloro-6-fluoro-4-pyridinyl)oxy]ethyl}-1H-pyrrol-2-yl)carbonyl]amino}-4-(trifluoromethyl)phenyl]cyclopropanecarboxylic acid] |
| 1 | Cc1cc(CCCc2ccccc2)cc(C)c1C(=O)Nc1cc([C@H]2C[C@H]2C(=O)O)ccc1C(F)(F)F [Example 12, (1R,2S)-2-[3-{[2,6-Dimethyl-4-(3-phenylpropyl)benzoyl]amino}-4-(trifluoromethyl)phenyl]cyclopropanecarboxylic acid] |
| 4.7 | Cc1cc(OCCc2ccc(F)cc2F)cc(C)c1C(=O)Nc1cc([C@H]2C[C@H]2C(=O)O)ccc1C(F)(F)F [Example 13, (1R,2S)-2-[3-({4-[2-(2,4-Difluorophenyl)ethoxy]-2,6-dimethylbenzoyl}amino)-4-(trifluoromethyl)phenyl]cyclopropanecarboxylic acid] |
| < 0.3 | Cc1cc(OCCc2ccccc2)cc(C)c1C(=O)Nc1cc([C@H]2C[C@H]2C(=O)O)c(Cl)cc1C(F)(F)F [Example 15, (1R,2S)-2-[2-Chloro-5-{[2,6-dimethyl-4-(2-phenylethoxy)benzoyl]amino}-4-(trifluoromethyl)phenyl]cyclopropanecarboxylic acid] |
| 0.9 | Cc1cc(OCCc2ccccc2)cc(C)c1C(=O)Nc1cc([C@H]2C[C@H]2C(=O)O)ccc1C(F)(F)F [Example 18, (1R,2S)-2-[3-{[2,6-Dimethyl-4-(2-phenylethoxy)benzoyl]amino}-4-(trifluoromethyl)phenyl]cyclopropanecarboxylic acid] |
| 12 | Cc1cc(OCCc2ccccc2)cc(C)c1C(=O)Nc1cc([C@@H]2C[C@@H]2C(=O)O)ccc1C(F)(F)F [Example 19, (1S,2R)-2-[3-{[2,6-Dimethyl-4-(2-phenylethoxy)benzoyl]amino}-4-(trifluoromethyl)phenyl]cyclopropanecarboxylic acid] |
| 28 | Cc1cc(OCCc2cnn(C)c2)cc(C)c1C(=O)Nc1cc([C@H]2C[C@H]2C(=O)O)ccc1C(F)(F)F [Example 20, (1R,2S)-2-[3-({2,6-Dimethyl-4-[2-(1-methyl-1H-pyrazol-4-yl)ethoxy]benzoyl}amino)-4-(trifluoromethyl)phenyl]cyclopropanecarboxylic acid] |
| 5 | Cc1cc(OCCC2CC2)cc(C)c1C(=O)Nc1cc([C@H]2C[C@H]2C(=O)O)ccc1C(F)(F)F [Example 20-1, (1R,2S)-2-[3-{[4-(2-Cyclopropylethoxy)-2,6-dimethylbenzoyl]amino}-4-(trifluoromethyl)phenyl]cyclopropanecarboxylic acid] |
| 8.1 | Cc1cc(Oc2cncc(Cl)n2)cc(C)c1C(=O)Nc1cc([C@H]2C[C@H]2C(=O)O)ccc1C(F)(F)F [Example 21, (1R,2S)-2-[3-({4-[(6-Chloro-2-pyrazinyl)oxy]-2,6-dimethylbenzoyl}amino)-4-(trifluoromethyl)phenyl]cyclopropanecarboxylic acid] |
| 5.2 | Cc1cc(OCCc2ccccc2)cc(C)c1C(=O)Nc1cc(CCC(=O)O)ccc1C(F)(F)F [Example 24, 3-[3-f{[2,6-Dimethyl-4-(2-phenylethoxy)benzoyl]amino}-4-(trifluoromethyl)phenyl]propanoic acid] |
| 20 | Cc1cc(OCCc2ccccc2)cc(C)c1C(=O)Nc1cc(C(C)CC(=O)O)ccc1C(F)(F)F (stereo not shown) [Example 24-1, 3-[3-{[2,6-Dimethyl-4-(2-phenylethoxy)benzoyl]amino}-4-(trifluoromethyl)phenyl]butanoic acid] |
| 12 | Cc1cc(OCCc2ccccc2)cc(C)c1C(=O)Nc1cc(CC(C)C(=O)O)ccc1C(F)(F)F (stereo not shown) [Example 24-2, 3-[3-f{[2,6-Dimethyl-4-(2-phenylethoxy)benzoyl]amino}-4-(trifluoromethyl)phenyl]-2-methylpropanoic acid] |
| 2.2 | Cc1cc(OCCc2ccccc2)cc(C)c1C(=O)Nc1cc([C@H]2CC[C@H]2C(=O)O)ccc1C(F)(F)F [Example 25, (1R,2S)-2-[3-{[2,6-Dimethyl-4-(2-phenylethoxy)benzoyl]amino}-4-(trifluoromethyl)phenyl]cyclobutanecarboxylic acid] |
| 27 | Cc1cc(OCCc2ccccc2)cc(C)c1C(=O)Nc1cc([C@H]2C[C@@]2(C)C(=O)O)ccc1C(F)(F)F [Example 26, (1R,2R)-2-[3-{[2,6-Dimethyl-4-(2-phenylethoxy)benzoyl]amino}-4-(trifluoromethyl)phenyl]-1-methylcyclopropanecarboxylic acid] |
| 4 | CC(C)c1cc(OCc2ccccc2)ccc1C(=O)Nc1cc([C@H]2C[C@H]2C(=O)O)ccc1C(F)(F)F [Example 28, (1R,2S)-2-[3-{[4-(Benzyloxy)-2-isopropylbenzoyl]amino}-4-(trifluoromethyl)phenyl]cyclopropanecarboxylic acid] |
| 11 | CC(C)c1c(OCc2ccccc2)cccc1C(=O)Nc1cc([C@H]2C[C@H]2C(=O)O)ccc1C(F)(F)F [Example 29-1, (1R,2S)-2-[3-{[3-(Benzyloxy)-2-isopropylbenzoyl]amino}-4-(trifluoromethyl)phenyl]cyclopropanecarboxylic acid] |
| 8.9 | CC(C)c1nn(CCCc2ccccc2)cc1C(=O)Nc1cc([C@H]2C[C@H]2C(=O)O)ccc1C(F)(F)F [Example 31-1, (1R,2S)-2-[3-({[3-Isopropyl-1-(3-phenylpropyl)-1H-pyrazol-4-yl]carbonyl}amino)-4-(trifluoromethyl)phenyl]cyclopropanecarboxylic acid] |
| 1.3 | CC(C)c1c(C(=O)Nc2cc([C@H]3C[C@H]3C(=O)O)ccc2C(F)(F)F)cnn1CCCc1ccccc1 [Example 31-2, (1R,2S)-2-[3-({[5-Isopropyl-1-(3-phenylpropyl)-1H-pyrazol-4-yl]carbonyl}amino)-4-(trifluoromethyl)phenyl]cyclopropanecarboxylic acid] |
| 13 | Cc1cc(OCCc2ccccc2)cc(C)c1C(=S)Nc1cc([C@H]2C[C@H]2C(=O)O)ccc1C(F)(F)F [Example 32, (1R,2S)-2-[3-({[2,6-Dimethyl-4-(2-phenylethoxy)phenyl]carbonothioyl}amino)-4-(trifluoromethyl)phenyl]cyclopropanecarboxylic acid] |
| < 0.3 | CCC(C)c1c(C(=O)Nc2cc([C@H]3C[C@H]3C(=O)O)ccc2C(F)(F)F)ccn1CCCc1ccccc1 (stereo partly drawn) [Example 34, (1R,2S)-2-[3-({[2-sec-Butyl-1-(3-phenylpropyl)-1H-pyrrol-3-yl]carbonyl}amino)-4-(trifluoromethyl)phenyl]cyclopropanecarboxylic acid] |
